Data published in ChEMBL document CHEMBL4184155, “Resveratrol analogues like piceatannol are potent antioxidants as quantitatively demonstrated through the high scavenging ability against reactive oxygen species and methyl radical” (Bioorg Med Chem Lett, 2017).

How the values were obtained:
Format in all cases: functional
[1] = Antioxidant activity assessed as Trolox equivalents of photolysis-induced hydroxyl radical scavenging activity using DMPO spin trap by ESR spectroscopic method
[2] = Antioxidant activity assessed as Trolox equivalents of photolysis-induced methyl radical scavenging activity using DMPO spin trap by ESR spectroscopic method
[3] = Antioxidant activity assessed as Trolox equivalents of photolysis-induced alkoxyl scavenging activity using DMPO spin trap by ESR spectroscopic method
[4] = Antioxidant activity assessed as Trolox equivalents of photolysis-induced peroxyl scavenging activity using CYPMPO spin trap by ESR spectroscopic method
[5] = Antioxidant activity assessed as Trolox equivalents of photolysis-induced superoxide anion scavenging activity using CYPMPO spin trap by ESR spectroscopic method
[6] = Antioxidant activity assessed as Trolox equivalents of photolysis-induced singlet oxygen scavenging activity using 4-HO-TEMP spin trap by ESR spectroscopic method
[7] = Antioxidant activity assessed as relative scavenging rate constant for photolysis-induced hydroxyl radical scavenging activity by measuring Kaox/Kst ratio using DMPO spin trap by ESR spectroscopic method
[8] = Antioxidant activity assessed as relative scavenging rate constant for photolysis-induced methyl radical scavenging activity by measuring Kaox/Kst ratio using DMPO spin trap by ESR spectroscopic method
[9] = Antioxidant activity assessed as relative scavenging rate constant for photolysis-induced alkoxyl scavenging activity by measuring Kaox/Kst ratio using DMPO spin trap by ESR spectroscopic method
[10] = Antioxidant activity assessed as relative scavenging rate constant for photolysis-induced peroxyl scavenging activity by measuring Kaox/Kst ratio using CYPMPO spin trap by ESR spectroscopic method
[11] = Antioxidant activity assessed as relative scavenging rate constant for photolysis-induced super-oxide anion scavenging activity by measuring Kaox/Kst ratio using CYPMPO spin trap by ESR spectroscopic method
[12] = Antioxidant activity assessed as relative scavenging rate constant for photolysis-induced singlet oxygen scavenging activity by measuring Kaox/Kst ratio using 4-HO-TEMP spin trap by ESR spectroscopic method
[13] = Antioxidant activity assessed as rate constant for photolysis-induced methyl radical scavenging activity using DMPO spin trap by ESR spectroscopic method
[14] = Antioxidant activity assessed as rate constant for singlet oxygen scavenging activity in aqueous solution by EPR spectroscopic method
[15] = Antioxidant activity assessed as rate constant for singlet oxygen scavenging activity in methanol solution by EPR spectroscopic method
[16] = Antioxidant activity assessed as rate constant for singlet oxygen scavenging activity in ethanol-water (1:1 v/v) mixture using phosphorescence-based single-photon-counting method

With `COc1cc(/C=C/c2ccc(OC)c(OC)c2)cc(OC)c1` as the compound, how does the Activity [1] read?
The Activity was 0.8 equiv.

What about the Activity [2] of the same compound?
Its Activity is -0 equiv.

And the Activity [3]?
The Activity was 0.21 equiv.

What about the Activity [4] of the same compound?
The Activity was 0.3 equiv.

What about the Activity [5] of the same compound?
Its Activity is -0 equiv.

And the Activity [6]?
The Activity was 0.11 equiv.

What about the Ratio [7] of the same compound?
Its Ratio is 25.6.

And the Ratio [8]?
Its Ratio is -0.

What about the Ratio [9] of the same compound?
The Ratio was 24.4.

What about the Ratio [10] of the same compound?
Its Ratio is 8.52.

And the Ratio [11]?
The Ratio was -0.

What about the Ratio [12] of the same compound?
Its Ratio is 268.

Which results are given for `Oc1cc(O)cc(/C=C/c2ccc(O)c(O)c2)c1`?
Activity [1]: 2.78 equiv; Activity [2]: 0.11 equiv; Activity [3]: 0.36 equiv; Activity [4]: 7.7 equiv; Activity [5]: 1.86 equiv; Activity [6]: 7 equiv; Ratio [7]: 88.8; Ratio [8]: 5.65; Ratio [9]: 41.2; Ratio [10]: 218; Ratio [11]: 156; Ratio [12]: 16600; K [13]: 7.9 ×10⁷ /M/s

With `COc1ccc(/C=C/c2cc(O)cc(O)c2)cc1O` as the compound, how does the Activity [1] read?
Its Activity is 0.71 equiv.

What about the Activity [2] of the same compound?
Its Activity is 0.04 equiv.

What about the Activity [3] of the same compound?
Its Activity is 0.1 equiv.

What about the Activity [4] of the same compound?
Its Activity is 0.71 equiv.

What about the Activity [5] of the same compound?
Its Activity is 0.84 equiv.

What about the Activity [6] of the same compound?
Its Activity is 3.7 equiv.

What about the Ratio [7] of the same compound?
Its Ratio is 22.6.

What about the Ratio [8] of the same compound?
The Ratio was 2.21.

And the Ratio [9]?
Its Ratio is 11.9.

What about the Ratio [10] of the same compound?
Its Ratio is 21.1.

And the Ratio [11]?
The Ratio was 70.5.

And the Ratio [12]?
Its Ratio is 8780.

What about the K [13] of the same compound?
Its K is 3.1 ×10⁷ /M/s.

Which Activity [1] does the source give for `Oc1cc(O)cc(/C=C/c2ccc(O)cc2O)c1` here?
The Activity was 0.68 equiv.

And the Activity [2]?
Its Activity is 0.08 equiv.

What about the Activity [3] of the same compound?
The Activity was 0.17 equiv.

What about the Activity [4] of the same compound?
The Activity was 0.67 equiv.

And the Activity [5]?
Its Activity is 0.45 equiv.

What about the Activity [6] of the same compound?
Its Activity is 3.4 equiv.

What about the Ratio [7] of the same compound?
The Ratio was 21.8.

And the Ratio [8]?
Its Ratio is 3.98.

What about the Ratio [9] of the same compound?
Its Ratio is 19.

What about the Ratio [10] of the same compound?
Its Ratio is 18.9.

What about the Ratio [11] of the same compound?
The Ratio was 37.4.

What about the Ratio [12] of the same compound?
Its Ratio is 7960.

With `Oc1ccc(/C=C/c2cc(O)cc(O)c2)cc1` as the compound, how does the Activity [1] read?
The Activity was 0.5 equiv.

And the Activity [2]?
Its Activity is -0 equiv.

And the Activity [3]?
Its Activity is 0.2 equiv.

And the Activity [4]?
Its Activity is 0.69 equiv.

What about the Activity [5] of the same compound?
The Activity was 0.4 equiv.

And the Activity [6]?
Its Activity is 3 equiv.

What about the Ratio [7] of the same compound?
The Ratio was 15.8.

And the Ratio [8]?
The Ratio was -0.

And the Ratio [9]?
The Ratio was 23.3.

And the Ratio [10]?
The Ratio was 19.6.

And the Ratio [11]?
The Ratio was 33.4.

And the Ratio [12]?
The Ratio was 7080.

What about the K [14] of the same compound?
Its K is 3.92 ×10⁹ /M/s.

And the K [15]?
Its K is 2.55 ×10⁷ /M/s.

Which results are given for `COc1cc(/C=C/c2ccc(O)cc2)cc(OC)c1`?
Activity [1]: 0.47 equiv; Activity [2]: -0 equiv; Activity [3]: 0.11 equiv; Activity [4]: 0.88 equiv; Activity [5]: 0.42 equiv; Activity [6]: 2 equiv; Ratio [7]: 14.9; Ratio [8]: -0; Ratio [9]: 13; Ratio [10]: 24.8; Ratio [11]: 35.6; Ratio [12]: 4610

Which results are given for `Cc1c(C)c2c(c(C)c1O)CCC(C)(C(=O)O)O2` (centres undefined)?
Ratio [7]: 31.9; Ratio [8]: 50; Ratio [9]: 115; Ratio [10]: 28.3; Ratio [11]: 83.9; Ratio [12]: 2360; K [16]: 6.22 ×10⁷ /M/s; K [13]: 7 ×10⁸ /M/s
